Laboratory results from patent publication US8101594B2, “Method for improving pancreatic functions” (Morinaga Milk Industry Co., Ltd., priority 2005, dated 2012).

How the values were obtained:
[1] = test system: db/db mice; assay: Pancreatic tissue protecting action: number and maximum area of Langerhans islets in pancreatic sections of db/db mice; assay type: in vivo; conditions: for Maximum area of Langerhans islets on administration × 10^3 / The numbers of Langerhans islets in sections on 43rd day of administration: 1 μg/animal orally once a day for 42 days; for Maximum area of Langerhans islets on administration × 10^3: negative sample 44.5 ± 17.7; for The numbers of Langerhans islets in sections on 43rd day of administration: pancreatic sections of 3 positions, HE staining, negative sample 40.3 ± 9.7; for Action of protecting pancreatic tissues, especially endocrine cells: 42 days oral
Text: In this test, the pancreatic tissue protecting action of compounds having a lophenol skeleton was examined by using db/db mice known as a model animal of pancreatic hypofunction or pancreatic tissue dysfunction.
4-methyl-cholest-7-en-3-ol produced in Preparation Example mentioned above was used as test sample 1, 4-methyl-ergost-7-en-3-ol was used as test sample 2, 4-methyl-stigmast-7-en-3-ol was used as test samples 3. Further, β-sitosterol (Tama Biochemical Co., Ltd.) was used as a control sample.
In this test, 6-week old male db/db mice (purchased from Clea Japan, Inc.) were used. These mice were divided into groups, each consisting of 7 animals. Each test sample was dissolved in DMSO, and the concentration was adjusted to 1 μg/mL with physiological saline. The final DMSO concentration was adjusted to 0.2%. The model mice were orally administered with 1 mL of the test sample once a day everyday for 42 days with a sonde. On the 43rd day of the continuous administration, the pancreas was extracted, divided into three portions of upstream, midstream and downstream from the duodenum side, and fixed with a formalin solution, and then paraffin blocks were prepared in a conventional manner. Section slides were prepared from the paraffin blocks, and subjected to hematoxylin-eosin staining. The numbers of Langerhans islets existing on the sections of the 3 position of the pancreas, and area of Langerhans islet having the maximum area on each section were measured by using an ocular micrometer on a microscope (“ECLIPSE E600”, NIKON CORP.).

[2] = test system: db/db mice; assay: Serum insulin level (insulin production ability protecting action) in db/db mice after 42 days of oral administration; assay type: in vivo; conditions: for Serum insulin levels on 43rd day of administration: male db/db mice, ELISA, negative sample 1.99 ± 0.66; for Pancreatic function (insulin production ability) protecting effect: 0.1 μg/animal; for Pancreatic function (insulin production ability) protecting effect / Serum insulin level as % of that observed in the negative test: 43rd day of continuous administration, db/db mice; for Serum insulin level as % of that observed in the negative test: 1 μg/animal
Method: In this test, the endocrine gland cell functions (insulin production ability) protecting action of compounds having a lophenol skeleton was evaluated by using db/db mice known as a model animal of pancreatic hypofunction or pancreatic tissue dysfunction.
4-methyl-cholest-7-en-3-ol produced in Preparation Example mentioned above was used as test sample 1, 4-methyl-ergost-7-en-3-ol was used as test sample 2, and 4-methyl-stigmast-7-en-3-ol was used as test samples 3.
In this test, 6-week old male db/db mice (purchased from Clea Japan, Inc.) were used. These mice were divided into groups, each consisting of 7 animals. Each test sample was dissolved in DMSO, and the concentration was adjusted to 0.1 or 1 μg/mL with physiological saline. The final DMSO concentration was adjusted to 0.2%. The pancreas dysfunction model mice were orally administered with 1 mL of the test sample once a day everyday for 42 days with a sonde. The serum insulin level was measured on the 43rd day of the continuous administration by using Lbis insulin mouse ELISA kit (Shibayagi Co., Ltd).

[3] = 0.1 μg/animal orally once a day for 42 days
[4] = 1 μg/animal orally once a day for 42 days

SMILES	Maximum area of Langerhans islets on administration × 10^3 ([1]; 43rd day)	The numbers of Langerhans islets in sections on 43rd day of administration [1] [piece]	Pancreatic function protecting effect ([1]; 1 μg/animal, 43rd day)	Change of numbers and maximum areas of Langerhans islets ([1]; 1 μg/animal, 43rd day, versus negative sample)	Serum insulin levels on 43rd day of administration [2, 3] [ng/mL]	Pancreatic function (insulin production ability) protecting effect [2]	Serum insulin levels on 43rd day of administration [2, 4] [ng/mL]	Serum insulin level as % of that observed in the negative test [2] [%]	Maximum area of Langerhans islets, times as large as that observed in the negative test ([1]; 1 μg/animal, 43rd day) [times]	Number of Langerhans islets as % of the number in the negative sample-administered mice ([1]; 1 μg/animal, 43rd day) [%]	Action of protecting pancreatic tissues, especially endocrine cells ([1]; 1 μg/animal)
CC[C@H](CC[C@@H](C)[C@H]1CC[C@H]2[C@@H]3CC=C4C[C@@H](O)CC[C@]4(C)[C@H]3CC[C@]12C)C(C)C [Control sample, β-sitosterol, reference compound]	69.1 ± 40.6 × 10^3 μm^2	42.3 ± 20.1	any pancreatic function protecting effect was not observed	don't show any significant change	–	–	–	–	–	–	–
CC(C)CCCC(C)C1CCC2C3=CCC4C(C)C(O)CCC4(C)C3CCC21C (stereo not shown) [Test sample 1, 4-methyl-cholest-7-en-3-ol]	160.0 ± 116.0 × 10^3 μm^2	75.7 ± 24.7	–	–	2.33 ± 1.23	any significant pancreatic function protecting effect was not observed	3.67 ± 0.80	184	3.6	188	had an action of protecting pancreatic tissues
CC(C)C(C)CCC(C)C1CCC2C3=CCC4C(C)C(O)CCC4(C)C3CCC21C (stereo not shown) [Test sample 2, 4-methyl-ergost-7-en-3-ol]	178.7 ± 143.4 × 10^3 μm^2	64.1 ± 9.1	–	–	2.32 ± 1.52	any significant pancreatic function protecting effect was not observed	4.17 ± 2.23	210	4	159	had an action of protecting pancreatic tissues
CCC(CCC(C)C1CCC2C3=CCC4C(C)C(O)CCC4(C)C3CCC21C)C(C)C (stereo not shown) [Test sample 3, 4-methyl-stigmast-7-en-3-ol]	122.6 ± 51.4 × 10^3 μm^2	60.4 ± 11.6	–	–	2.23 ± 0.68	any significant pancreatic function protecting effect was not observed	4.20 ± 1.86	211	2.8	150	had an action of protecting pancreatic tissues
